Read-outs that look alike come from different tables or passages of the source.
Test system: M. mycetomatis genome strain MM55
Experiment: CLSI M38-A2 based in vitro susceptibility screening (XTT or resazurin), growth at fixed concentration
Format: cell-based, Madurella mycetomatis
Settings: Madurella mycetomatis; for Percent fungal survival at 100 µM: replicate 2, M. mycetomatis MM55, read-out: Percentage survival at 100um, 100 uM A (second replicate column)
[1] = 25 uM, mean of three replicates, read-out: Percentage survival at 25um, 25 uM mean
[2] = 25 uM, replicate A, read-out: Percentage survival at 25um, 25 um A
[3] = 25 uM, replicate B, read-out: Percentage survival at 25um, 25 uM B
[4] = 25 uM, replicate C, read-out: Percentage survival at 25um, 25 uM C
[5] = first replicate column, read-out: Percentage survival at 100um, 100 uM A
[6] = mean of three replicates, read-out: Percentage survival at 100um, 100 uM mean
[7] = second replicate column, read-out: Percentage survival at 100um, 100 uM A
[8] = third replicate column, read-out: Percentage survival at 100um, 100 uM A
[9] = 25 uM, replicate A, MM55, read-out: Percentage survival at 25um, 25 um A
[10] = mean of replicates, MM55, read-out: Percentage survival at 100um, 100 uM mean
[11] = replicate 1, MM55, read-out: Percentage survival at 100um, 100 uM A
[12] = replicate 2, MM55, read-out: Percentage survival at 100um, 100 uM A
[13] = replicate 3, MM55, read-out: Percentage survival at 100um, 100 uM A
[14] = read-out: Percentage survival at 25um, 25 uM B
[15] = read-out: Percentage survival at 25um, 25 uM C
[16] = read-out: Percentage survival at 25um, 25 uM mean
[17] = 25 uM, mean of three, M. mycetomatis MM55, read-out: Percentage survival at 25um, 25 uM mean
[18] = 25 uM, replicate A, M. mycetomatis MM55, read-out: Percentage survival at 25um, 25 um A
[19] = 25 uM, replicate B, M. mycetomatis MM55, read-out: Percentage survival at 25um, 25 uM B
[20] = 25 uM, replicate C, M. mycetomatis MM55, read-out: Percentage survival at 25um, 25 uM C
[21] = mean of three, M. mycetomatis MM55, read-out: Percentage survival at 100um, 100 uM mean
[22] = replicate 1, M. mycetomatis MM55, read-out: Percentage survival at 100um, 100 uM A (first replicate column)
[23] = replicate 3, M. mycetomatis MM55, read-out: Percentage survival at 100um, 100 uM A (third replicate column)
[24] = 25 uM, mean of replicates, read-out: Percentage survival at 25um, 25 uM mean
[25] = mean of replicates, read-out: Percentage survival at 100um, 100 uM mean
[26] = replicate 1, read-out: Percentage survival at 100um, 100 uM A
[27] = replicate 2, read-out: Percentage survival at 100um, 100 uM A
[28] = replicate 3, read-out: Percentage survival at 100um, 100 uM A

Cc1ccc(N2CCC(CCOc3ccc(S(C)(=O)=O)cc3)CC2)nn1 [MMV1634394]
activity at 25 µM [1]: 86.9%
activity at 25 µM [2]: 79.1%
activity at 25 µM [3]: 80.9%
activity at 25 µM [4]: 101%
activity at 100 µM [5]: 52.8%
activity at 100 µM [6]: 63.9%
activity at 100 µM [7]: 75.2%
activity at 100 µM [8]: 63.7%

CCCC1(C2CC2)c2cc(Cl)ccc2NC(=O)N1C (centres unmarked) [MMV1782113]
activity at 25 µM (25 uM, mean of replicates, MM55, read-out: Percentage survival at 25um, 25 uM mean): 68.5%
activity at 25 µM [9]: 67.5%
activity at 25 µM (25 uM, replicate B, MM55, read-out: Percentage survival at 25um, 25 uM B): 76.8%
activity at 25 µM (25 uM, replicate C, MM55, read-out: Percentage survival at 25um, 25 uM C): 61.2%
activity at 100 µM [10]: 56.1%
activity at 100 µM [11]: 52.9%
activity at 100 µM [12]: 56.4%
activity at 100 µM [13]: 58.9%

CC[C@@]1(O)C(=O)OCc2c1cc1n(c2=O)Cc2cc3c([N+](=O)[O-])cccc3nc2-1 [MMV1580796]
activity at 25 µM [9]: 95.3%
activity at 100 µM [10]: 86.8%
activity at 100 µM [11]: 97.1%
activity at 100 µM [12]: 84.7%
activity at 100 µM [13]: 78.6%
activity at 25 µM [14]: 102%
activity at 25 µM [15]: 81.7%
activity at 25 µM [16]: 93.1%

Fc1ccc(-n2cc(Cn3c(-c4cccc(F)c4)nc4ccccc43)nn2)cc1 [MMV1580850]
activity at 25 µM [17]: 60.8%
activity at 25 µM [18]: 55.7%
activity at 25 µM [19]: 55.1%
activity at 25 µM [20]: 71.7%
activity at 100 µM [21]: 85.9%
activity at 100 µM [22]: 71.4%
Percent fungal survival at 100 µM: 60.3%
activity at 100 µM [23]: 126%

CC(C)(C)c1cccc(-c2nc3cc(C(=N)N)ccc3[nH]2)c1O [MMV1581548]
activity at 25 µM (25 uM, mean, read-out: Percentage survival at 25um, 25 uM mean): 20.7%
activity at 25 µM [2]: 56.8%
activity at 25 µM [3]: 2.31%
activity at 25 µM [4]: 2.96%
activity at 100 µM (mean, read-out: Percentage survival at 100um, 100 uM mean): 3.06%
activity at 100 µM (replicate (first column), read-out: Percentage survival at 100um, 100 uM A): -0.0188%
activity at 100 µM (replicate (second column), read-out: Percentage survival at 100um, 100 uM A): 5.51%
activity at 100 µM (replicate (third column), read-out: Percentage survival at 100um, 100 uM A): 3.71%

O=C(O)[C@H]1C2CCC(CC2)[C@@H]1Nc1nc(-c2c[nH]c3ncc(F)cc23)ncc1F [MMV1593516]
activity at 25 µM [1]: 97.3%
activity at 25 µM [2]: 98.8%
activity at 25 µM [3]: 105%
activity at 25 µM [4]: 88.2%
activity at 100 µM [5]: 107%
activity at 100 µM [6]: 98.7%
activity at 100 µM [7]: 103%
activity at 100 µM [8]: 86.5%

Cc1cccc(CC(=O)N[C@H]2CCOC2=O)c1 [MMV1579782]
activity at 25 µM [24]: 94%
activity at 25 µM [2]: 95.3%
activity at 25 µM [3]: 93.9%
activity at 25 µM [4]: 92.9%
activity at 100 µM [25]: 90.9%
activity at 100 µM [26]: 95.1%
activity at 100 µM [27]: 88.4%
activity at 100 µM [28]: 89.2%

[N-]=[N+]=N[C@H]1C[C@H](n2ccc(=O)[nH]c2=O)O[C@@H]1CO [MMV1593520]
activity at 25 µM [2]: 94.3%
activity at 100 µM [5]: 91.5%
activity at 100 µM [6]: 87%
activity at 100 µM [7]: 80.1%
activity at 100 µM [8]: 89.4%
activity at 25 µM [14]: 107%
activity at 25 µM [15]: 100%
activity at 25 µM [16]: 100%

CC(=O)NC[C@H]1CN(c2ccc(N3CCSCC3)c(F)c2)C(=O)O1 [MMV688756]
activity at 25 µM [24]: 96.1%
activity at 25 µM [2]: 94.4%
activity at 25 µM [3]: 99.9%
activity at 25 µM [4]: 94.2%
activity at 100 µM [25]: 92.4%
activity at 100 µM [26]: 100%
activity at 100 µM [27]: 85.2%
activity at 100 µM [28]: 91.6%

Nc1cc(N)c2nc(-c3ccccc3)c(Nc3ccc(F)cc3)nc2c1 [MMV1581554]
activity at 25 µM [17]: 92.5%
activity at 25 µM [18]: 97.1%
activity at 25 µM [19]: 91.3%
activity at 25 µM [20]: 89.3%
activity at 100 µM [21]: 89.9%
activity at 100 µM [22]: 116%
Percent fungal survival at 100 µM: 80.3%
activity at 100 µM [23]: 73.1%
